# Experimental data reported in paper PMC12040169 (PLOS Biology, 2025).
# Experiment: in vitro
# Conditions: human, hela cells, % viability
row,SMILES,"viability at 28.5 h, 10 µM [%]"
1,OC(COCc1ccccc1)CN1CCN(c2ccccc2F)CC1 (stereo not drawn) [CBK074851C],92.6
2,OC(COc1ccccc1)CN1CCN(Cc2ccccc2)CC1 (stereo not drawn) [CBK074852C],93
3,OC(COCc1ccc(Cl)cc1)CN1CCN(C(c2ccccc2)c2ccccc2)CC1 (stereo not drawn) [CBK074857C],86.3
4,CC(CN1CCN(Cc2ccccc2)CC1)N(C(=O)c1ccoc1)c1ccccn1 (stereo not drawn) [CBK074861C],92.1
5,C=C(C)c1cccc(C(C)(C)NC(=O)N2CCC(C(=O)NC(c3ccc(OC)nc3)c3ccccc3C)CC2)c1 (stereo not drawn) [CBK074871],92.2
6,Cc1ccc(-n2c(O)nnc2-c2ccc(Cl)c(Cl)c2)cc1 [CBK074887],94.5
7,Oc1nnc(-c2ccc(Cl)c(Cl)c2)n1C1CCCCC1 [CBK074888],97.9
8,c1ccc(CNc2nnc(-c3ccccc3)s2)cc1 [CBK074928],87.7
9,COC(=O)CCC(=O)N1CCc2c([nH]c3ccccc23)C12CCN(CCCc1ccccc1OC)C2 (stereo not drawn) [CBK074952],93.9
10,Cn1c(-c2ccc(C(=O)O)cc2)cc2oc(-c3ccccc3)nc2c1=O [CBK074957],98
11,CSc1nnc(-c2ccccc2[N+](=O)[O-])n1CC(C)C [CBK074959],98.4
12,COc1ccc([C@@]23CC[C@@H](NC(=O)c4ccc(F)c(C(F)(F)F)c4)C[C@@H]2N(C)CC3)cc1OC [CBK074967T],93.6
13,O=S(=O)(Nc1cc(OC2CCNCC2)c2occc2c1)c1c(Cl)cccc1Cl [CBK074989C],64.3
14,CCCc1[nH]nc(O)c1Cc1ccc(Cl)cc1 [CBK075013],90
15,CCCc1[nH]nc(O)c1Cc1ccc(F)cc1F [CBK075015],85.7
16,CCCc1[nH]nc(O)c1Cc1ccc(C(C)(C)C)cc1 [CBK075028],79.5
17,CCCc1[nH]nc(O)c1Cc1c(F)cccc1[N+](=O)[O-] [CBK075029],89.5
18,CCCc1[nH]nc(O)c1Cc1cc(C(F)(F)F)ccc1Cl [CBK075032],96.9
19,CCCc1[nH]nc(O)c1Cc1ccc(C(C)C)cc1 [CBK075033],106
20,CCCc1[nH]nc(O)c1Cc1ccccc1-c1ccccc1 [CBK075034],97.2
21,CC(C)(C)c1nn(CC2CCCCC2)c(=N)s1 [CBK075042],96.2

row,SMILES,"viability at 28.5 h, 10 µM [%]"
1,CC(C)(C)c1nnc(NCC2CCCCC2)s1 [CBK075043],101
2,CCc1nnc(NCC2CCCCC2)s1 [CBK075044],88.1
3,COc1ccc(C(NC(=O)[C@H]2CCCN2C(=O)NCc2ccccc2C)c2ccccc2C)cn1 (stereo partly drawn) [CBK075051],90.9
4,COc1ccc(C(NC(=O)[C@H]2CCCN2C(=O)Cc2cccs2)c2ccccc2C)cn1 (stereo partly drawn) [CBK075053],87
5,CCCc1[nH]nc(O)c1CCc1cccc(OC)c1OC [CBK075078],97
6,CCCc1[nH]nc(O)c1CCc1ccccc1F [CBK075080],88.5
7,CCCc1[nH]nc(O)c1CCc1ccccc1C(F)(F)F [CBK075081],93.9
8,CCCCNC(=S)N1CC[C@@H]2CN(C)C[C@]2(c2ccc(OC)c(OC)c2)C1 [CBK075101T],100
9,COc1ccc([C@]23CN(C)C[C@H]2CCN(C(=O)c2cccc(Br)c2)C3)cc1OC [CBK075111T],96.7
10,CCCc1[nH]nc(O)c1-c1cccc2ccccc12 [CBK075125],94
11,COc1ccccc1-c1c(O)n[nH]c1CCC1CCCC1 [CBK075128],97.5
12,CC(C)Cc1[nH]nc(O)c1-c1ccccc1 [CBK075134],103
13,CCCc1[nH]nc(O)c1-c1ccc(OC)cc1 [CBK075135],96.1
14,C=CCN1C(=O)C2(CC(=O)N(C)C2=O)c2ccccc21 (stereo not drawn) [CBK075137],93.6
15,CCN1C(=O)CC2(C1=O)C(=O)N(CC)c1ccc(C)cc12 (stereo not drawn) [CBK075140],99.4
16,COc1ccc2c(c1)C1(CC(=O)N(C)C1=O)C(=O)N2C (stereo not drawn) [CBK075146],115
17,COc1ccc2c(c1)C1(CC(=O)N(CCC3CCCCC3)C1=O)C(=O)N2C (stereo not drawn) [CBK075147],120
18,COc1ccc2c(c1)C1(CC(=O)N(Cc3ccc(OC)c(OC)c3)C1=O)C(=O)N2C (stereo not drawn) [CBK075157],94.4
19,C=CCN1C(=O)CC2(C1=O)C(=O)N(C)c1ccc(OC)cc12 (stereo not drawn) [CBK075158],101
20,C=CCN1C(=O)C2(CC(=O)N(CCC3CCCCC3)C2=O)c2ccccc21 (stereo not drawn) [CBK075160],107
21,CN1C(=O)CC2(C1=O)C(=O)N(Cc1ccccc1)c1ccc(F)cc12 (stereo not drawn) [CBK075163],90.5

row,SMILES,"viability at 28.5 h, 10 µM [%]"
1,COc1ccc2c(c1)C1(CC(=O)N(CCOc3ccccc3)C1=O)C(=O)N2C (stereo not drawn) [CBK075168],95.2
2,COc1ccc(CN2C(=O)CC3(C2=O)C(=O)N(Cc2ccccc2)c2ccc(F)cc23)cc1OC (stereo not drawn) [CBK075174],108
3,O=C1CC2(C(=O)N1CCC1CCCCC1)C(=O)N(Cc1ccccc1)c1ccc(F)cc12 (stereo not drawn) [CBK075175],91
4,CNC(=O)CN1C(=O)CC2(C1=O)C(=O)N(C)c1ccc(OC)cc12 (stereo not drawn) [CBK075190],91.5
5,COc1cccc(CCN2C(=O)CC3(C2=O)C(=O)N(C)c2ccc(OC)cc23)c1 (stereo not drawn) [CBK075191],94.6
6,COc1ccc2c(c1)C1(CC(=O)N(CC3CCCCC3)C1=O)C(=O)N2C (stereo not drawn) [CBK075201],100
7,CCN1C(=O)C2(CC(=O)N(CC3CCCCC3)C2=O)c2cc(C)ccc21 (stereo not drawn) [CBK075216],98.2
8,C=CCN1C(=O)C2(CC(=O)N(CC(=O)N(C)C)C2=O)c2cc(OC)ccc21 (stereo not drawn) [CBK075227],92.3
9,CN1C(=O)C2(CC(=O)N(CCC3CCCCC3)C2=O)c2cc(Cl)ccc21 (stereo not drawn) [CBK075231],92
10,CN(C)C(=O)CN1C(=O)CC2(C1=O)C(=O)N(C)c1ccc(Cl)cc12 (stereo not drawn) [CBK075232],90.2
11,CCN1C(=O)C2(CC(=O)N(CCOC)C2=O)c2cc(Cl)ccc21 (stereo not drawn) [CBK075244],121
12,CN1C(=O)CC2(C1=O)C(=O)N(C)c1ccc(F)cc12 (stereo not drawn) [CBK075290],105
13,C=CCN1C(=O)C2(CC(=O)N(CCCN(C)S(C)(=O)=O)C2=O)c2cc(F)ccc21 (stereo not drawn) [CBK075319],100
14,COCCN1C(=O)C2(CC(=O)N(CCc3scnc3C)C2=O)c2cc(Cl)ccc21 (stereo not drawn) [CBK075321],93.6
15,COCCN1C(=O)C2(CC(=O)N(CCOc3ccccc3)C2=O)c2ccccc21 (stereo not drawn) [CBK075322],98.5
16,COCCN1C(=O)C2(CC(=O)N(CC(=O)C(C)(C)C)C2=O)c2ccccc21 (stereo not drawn) [CBK075324],118
17,CN(C)C(=O)CCCN1C(=O)CC2(C1=O)C(=O)N(C)c1ccc(F)cc12 (stereo not drawn) [CBK075380],103
18,COCCN1C(=O)C2(CC(=O)N(C)C2=O)c2ccccc21 (stereo not drawn) [CBK075387],102
19,CNC(=O)CN1C(=O)CC2(C1=O)C(=O)N(CCOC)c1ccc(C)cc12 (stereo not drawn) [CBK075401],97.1
20,CN1C(=O)CC2(C1=O)C(=O)N(CCCCOc1ccccc1)c1ccc(F)cc12 (stereo not drawn) [CBK075408],96
21,C=CCN1C(=O)CC2(C1=O)C(=O)N(CCn1cnc3c1c(=O)n(C)c(=O)n3C)c1ccc(Cl)cc12 (stereo not drawn) [CBK075410],94.8

row,SMILES,"viability at 28.5 h, 10 µM [%]"
1,C=CCN1C(=O)CC2(C1=O)C(=O)N(CCCn1c(=O)n(C)c3ccccc31)c1ccc(Cl)cc12 (stereo not drawn) [CBK075411],94.6
2,CN1C(=O)CC2(C1=O)C(=O)N(CC(=O)c1ccccc1)c1ccc(F)cc12 (stereo not drawn) [CBK075420],95.4
3,COCCN1C(=O)C2(CC(=O)N(CC(=O)N(C)C)C2=O)c2cc(F)ccc21 (stereo not drawn) [CBK075428],104
4,COc1ccccc1OCCCN1C(=O)C2(CC(=O)N(C)C2=O)c2cc(F)ccc21 (stereo not drawn) [CBK075430],88.2
5,C=CCN1C(=O)CC2(C1=O)C(=O)N(CCCN(C)S(C)(=O)=O)c1ccc(Cl)cc12 (stereo not drawn) [CBK075432],97.3
6,C=CCN1C(=O)CC2(C1=O)C(=O)N(Cc1nnc(-c3ccc(C)cc3)o1)c1ccc(Cl)cc12 (stereo not drawn) [CBK075434],104
7,CN1C(=O)CC2(C1=O)C(=O)N(CCCn1c(=O)n(C)c3ccccc31)c1ccc(F)cc12 (stereo not drawn) [CBK075441],110
8,CN1C(=O)CC2(C1=O)C(=O)N(Cc1nc(-c3ccc(Cl)cc3)no1)c1ccc(F)cc12 (stereo not drawn) [CBK075442],87.8
9,CN1C(=O)CC2(C1=O)C(=O)N(CCN1C(=O)c3ccccc3C1=O)c1ccc(F)cc12 (stereo not drawn) [CBK075451],89.5
10,Cc1ccc(-c2nnc(CN3C(=O)C4(CC(=O)N(C)C4=O)c4cc(F)ccc43)o2)cc1 (stereo not drawn) [CBK075453],110
11,CN1C(=O)C2(CC(=O)N(CCC3CCCCC3)C2=O)c2ccccc21 (stereo not drawn) [CBK075461],109
12,C=CCN1C(=O)CC2(C1=O)C(=O)N(C)c1ccccc12 (stereo not drawn) [CBK075472],99
13,CCN1C(=O)CC2(C1=O)C(=O)N(CCCOc1ccccc1OC)c1ccccc12 (stereo not drawn) [CBK075498],109
14,CCN1C(=O)CC2(C1=O)C(=O)N(Cc1cccc(CN3C(=O)CCC3=O)c1)c1ccccc12 (stereo not drawn) [CBK075508],104
15,CN1C(=O)CC2(C1=O)C(=O)N(CCCOc1ccc(F)cc1)c1ccccc12 (stereo not drawn) [CBK075513],108
16,CCN1C(=O)CC2(C1=O)C(=O)N(CCCOc1ccccc1)c1ccc(OC)cc12 (stereo not drawn) [CBK075585],98
17,CCN1C(=O)CC2(C1=O)C(=O)N(Cc1nnc(-c3ccc(C)cc3)o1)c1ccc(OC)cc12 (stereo not drawn) [CBK075586],90.4
18,CCN1C(=O)CC2(C1=O)C(=O)N(CCCOc1ccc(Cl)cc1)c1ccc(C)cc12 (stereo not drawn) [CBK075648],109
19,C=CCN1C(=O)CC2(C1=O)C(=O)N(CCCn1c(=O)c3c(ncn3C)n(C)c1=O)c1ccc(OC)cc12 (stereo not drawn) [CBK075701],93.6
20,O=C1CCC(=O)N1CCN1C(=O)C2(CC(=O)N(Cc3ccccc3)C2=O)c2ccccc21 (stereo not drawn) [CBK075705],101
21,Cn1cnc2c1c(=O)n(CCCN1C(=O)C3(CC(=O)N(Cc4ccccc4)C3=O)c3cc(F)ccc31)c(=O)n2C (stereo not drawn) [CBK075717],76
